Measured values published in US20080287435A1, “Active Ingredient Combinations Having Insecticide and Acaricide Properties” (Bayer CropScience AG, priority 2005, published 2008).

How the values were obtained:
Myzus persicae = Myzus persicae test (cabbage leaf dip); assay type: in vivo; conditions: concentration 20 ppm; peach aphid on cabbage leaves (Brassica oleracea), dipped
Description: To produce a suitable preparation of active compound, one part by weight of active compound is mixed with the stated amounts of solvent and emulsifier, and the concentrate is diluted with emulsifier-containing water to the desired concentration.
Cabbage leaves (Brassica oleracea) which are heavily infested by the peach aphid (Myzus persicae) are treated by being dipped into the preparation of active compound of the desired concentration.
After the desired period of time, the kill in % is determined. 100% means that all aphids have been killed; 0% means that none of the aphids have been killed.

Plutella xylostella = Plutella xylostella test (cabbage leaf dip); assay type: in vivo; conditions: concentration 0.16 ppm; diamond back moth caterpillars on dipped cabbage leaves
Description: To produce a suitable preparation of active compound, 1 part by weight of active compound is mixed with the stated amounts of solvent and emulsifier, and the concentrate is diluted with emulsifier-containing Water to the desired concentration.
Cabbage leaves (Brassica oleracea) are treated by being dipped into the preparation of active compound of the desired concentration and are populated with caterpillars of the diamond back moth (Plutella xylostella) while the leaves are still moist.
After the desired period of time, the kill in % is determined. 100% means that all caterpillars have been killed; 0% means that none of the caterpillars have been killed.

For CC[S+]([O-])c1c(C#N)nn(-c2c(Cl)cc(C(F)(F)F)cc2Cl)c1N (centres unmarked) [Ethiprole, ethiprole], the “Kill in % after 6 d” value (Myzus persicae) was 10% and the “Kill in % after 6 d” value (Plutella xylostella) was 0%.
